Source: patent US10688096B2, “Methods for treatment of sleep-related breathing disorders” (The University of Chicago, priority 2010, dated 2020)

Experiments:
[1] = test system: H2S generation in carotid bodies; assay: Measurement of H2S levels in carotid body homogenates, rats; type: biochemical
Protocol: (§1) H2S levels in the carotid body were assayed as follows. Briefly, carotid bodies were pooled (4 carotid bodies per experiment in rats; 6 carotid bodies per experiment in mice) and tissue homogenates were prepared in 100 mM potassium phosphate buffer, pH 7.4. The enzyme reaction was carried out in sealed tubes flushed with either N2 or different levels of O2—N2 gas mixtures. The PO2 of the reaction medium was determined by blood gas analyzer (ABL5). The assay mixture in a total volume of 500 μl contains (in final concentration): L-cysteine, (800 μM); pyridoxal 5′-phosphate, (80 μM); potassium phosphate buffer, pH 7.4, (100 mM); and tissue homogenate (2 μg protein). The reaction mixture was incubated at 37° C. for 1 h and at the end of the reaction, alkaline zinc acetate (1% w/v; 250 up and trichloroacetic acid (10% v/v) was added sequentially to trap H2S generated and to stop the reaction, respectively. The zinc sulfide formed was reacted sequentially with acidic N,N-dimethyl-p-phenylenediamine sulfate (20 μM) and ferric chloride (30 μM) and the absorbance was measured at 670 nm using a micro-plate reader. A standard curve relating the concentration of Na2S and absorbance was used to calculate H2S concentration and expressed as nanomoles of H2S formed per hour per milligram protein.
(§2) Rats and mice were treated with DL-propargylglycine (Sigma; 200 mg/kg) or Cr(III) Mesoporphyrin IX chloride (CrM459, Frontier Scientific, Logan, Utah; 1 mg/kg) intraperitoneally 2-3 h before acute experiments on anesthetized animals. NaHS (Sigma chemicals, MO) was given acutely to the ex vivo carotid body preparation. In the in vitro assays for H2S measurements, known concentrations of HO-2 inhibitor and CO donor (tricarbonyldichlororuthenium, [Ru(CO)3Cl2]2, Sigma, USA) were added to cell lysates. All solutions with drugs were prepared fresh during the experiments.

[2] = test system: carotid body; assay: Carotid body sensory activity ex vivo (carotid sinus nerve single unit discharge), rats
Protocol: (§3) Sensory activity from carotid bodies ex vivo was recorded as previously described (Peng, Y. J., et al., PNAS, 2003, 100, 10073-78; Peng Y. J., et. al., J. Physiol., 2006, 577, 705-716). Briefly, carotid bodies along with the sinus nerves were harvested from anaesthetized mice or rats, placed in a recording chamber (volume, 250 μl) and superfused with warm physiological saline (35° C.) at a rate of 2.5 ml/min having the following composition (mM): NaCl (140), KCl (5.4), CaCl2 (2.5), MgCl2 (0.5), HEPES (5.5), D-glucose (11), sucrose (5), and the solution was bubbled with 100% O2 and pH was adjusted to 7.35. Carotid bodies were challenged with graded hypoxia by switching the perfusate equilibrated with gas mixtures containing varying levels of O2. For assessing the carotid body response to CO2, bicarbonate-buffered medium equilibrated with either […] (baseline) or 90% 02+10% CO2 balance N2. Clearly identifiable action potentials (2-3 active units) were recorded from one of the nerve bundles with a suction electrode and stored in a computer via a data acquisition system (PowerLab/8P, AD Instruments Pty Ltd, Australia). ‘Single’ units were selected based on the height and duration of the individual action potentials using a spike discrimination program (Spike Histogram Program, Power Laboratory, AD Instruments). In each carotid body, at least two chemoreceptor units were analyzed. The PO2, and PCO2 of the superfusion medium were determined by a blood gas analyzer (ABL 5, Radiometer, Copenhagen, Denmark).
as §2
(§4) In unsedated mice RR (breaths/min), VT (μl), minute ventilation [VE (ml/min)=RR×VT], O2 consumption (VO2, ml/min), and CO2 production (VCO2 ml/min) were analyzed. Respiratory variables (RR and VT) were averaged for at least 20 consecutive breaths over 5 min of inspired O2 and CO2 challenge. VT, VE, VO2 and VCO2 were normalized to body weight. Carotid body sensory activity (discharge from ‘single’ units) was averaged during 3 min of baseline and during the 3 min of gas challenge and expressed as impulses per second unless otherwise stated. The number of secretory events and the amount of catecholamine secreted per secretory event were analyzed in each experiment and the data were expressed as total catecholamines secreted. Average data are presented as mean±S.E.M. Statistical significance was assessed by either ANOVA or two-way ANOVA with repeated measures followed by Tukey's test. p values <0.05 were considered significant.

[3] = test system: H2S generation in adrenal glands; assay: H2S generation in adrenal glands of rat pups; type: biochemical, rats; conditions: PAG treated rat pups vs vehicle; data not shown
[4] = test system: carotid body; assay: Carotid body sensory activity ex vivo (carotid sinus nerve single unit discharge), mice
Protocol: as §3, §2, §4

[5] = test system: neonatal adrenal medullary chromaffin cells (AMC); assay: Catecholamine secretion from neonatal adrenal medullary chromaffin cells by amperometry; type: cell-based, rats; conditions: 40 mM K+, AMC from PAG treated rat pups; FIG. 6B
Protocol: The protocols for preparation of chromaffin cells and measurements of catecholamine secretion by amperometry are as follows. Briefly, adrenal glands were harvested from anesthetized mice and rats aged P10. Chromaffin cells were enzymatically dissociated, plated on collagen (type VII; Sigma) coated coverslips, and maintained at 37° C. in a 5% CO2 incubator for 12-24 h. The growth medium consisted of F-12 K medium (Invitrogen) supplemented with 10% horse serum, 5% fetal bovine serum, and 1% Penicillin/streptomycin/glutamine cocktail (Invitrogen). Catecholamine secretion from chromaffin cells was monitored by amperometry using carbon fiber electrodes. […] Normoxic solutions were equilibrated with room air (PO2˜146 mmHg), and hypoxic solutions were equilibrated with appropriate gas mixtures that yielded medium PO2, of ˜30-40 mmHg as measured by blood gas analyzer. […]
In unsedated mice RR (breaths/min), VT (μl), minute ventilation [VE (ml/min)=RR×VT], O2 consumption (VO2, ml/min), and CO2 production (VCO2 ml/min) were analyzed. […] Carotid body sensory activity (discharge from ‘single’ units) was averaged during 3 min of baseline and during the 3 min of gas challenge and expressed as impulses per second unless otherwise stated. […]

[6] = Respiration (rate and depth) in spontaneously hypertensive and Sprague-Dawley rats, whole body polysomnography; type: in vivo; conditions: FIG. 14
Protocol: FIG. 14. […] Spontaneously hypertensive rats (SHR) were treated with the CSE inhibitor propargylglycine. Their respiration was measured using whole body polysomnography. The control animals were Sprague-Dawley rats.

[7] = test system: H2S generation in carotid bodies; assay: Measurement of H2S levels in carotid body homogenates, mice; type: biochemical; conditions: 1 μM, normoxia, FIG. 5A
Protocol: as §1, with “protein. […]” for “protein.”

[8] = systemic administration (1 mg/kg i.p.), CSE+/+ mice, FIG. 5B-D

SMILES: C#CCC(N)C(=O)O (racemic) [PAG, DL-propargylglycine]
- basal H2S levels in carotid body ([1]; PAG treated rats (vehicle=266±61)): 147±50 nmol/h/mg protein
- reduction of basal H2S levels in carotid body ([1]; PAG treated rats vs vehicle, p<0.05): 55%
- hypoxia-evoked H2S generation in carotid bodies ([1]; PAG treated rats, graded hypoxia, FIG. 3A): nearly absent
- carotid body response to CO2 ([2]; PAG treated rats (same rats tested for hypoxia), FIG. 3C): significantly augmented
- carotid body sensory response to hypoxia ([2]; PAG treated rats vs vehicle, FIG. 3B): significantly attenuated
- hypoxia-induced increase of H2S generation in adrenal glands [3]: greatly reduced or absent
- carotid body sensory response to hypoxia ([4]; CSE+/+ mice treated systemically with PAG (200 mg/kg i.p. 2-3 h before), FIG. 9): loss of the hypoxic response
- carotid body hypoxic response, acute application ([4]; acute application of PAG to the carotid body): ineffective in preventing the hypoxic response
- K+-evoked catecholamine secretion [5]: unaffected
- respiration frequency ([6]; control Sprague-Dawley rats treated with PAG): reducing respiration frequency very slightly
- breathing pattern ([6]; spontaneously hypertensive rats (SHR) treated with PAG): normalized

SMILES: CCC1=C(C)c2cc3[n-]c(cc4nc(cc5[n-]c(cc1n2)c(C)c5CCC(=O)O)C(CCC(=O)O)=C4C)c(C)c3CC.[Cl][Cr+2] [Cr (III) MP, Cr (III) mesoporphyrin IX chloride]
- H2S generation in carotid bodies under normoxia ([1]; rat carotid bodies, 1 and 100 μM, FIG. 13A): enhanced
- baseline carotid body activity [4, 8]: significantly increased
- carotid body hypoxic response [4, 8]: potentiated
- increase of H2S generation in carotid bodies ([7]; CSE+/+ mice): 6 fold
- increase of H2S generation in carotid bodies ([7]; CSE−/− (mutant) mice): abolished

SMILES: N[C@@H](CS)C(=O)O [L-cysteine]
- effect on carotid body hypoxic response ([2]; 100 μM L-cysteine, isolated rat carotid body, FIG. 10): no significant effect

SMILES: [Na+].[SH-] [NaHS]
- carotid body response in Ca2+-free and EGTA containing medium ([2]; 100 μM NaHS, rats, FIG. 4B): abolished
- onset of carotid body response after application ([2]; NaHS, activity returned to baseline after termination, FIG. 4A): within seconds
- carotid body sensory activity ([2]; exogenous NaHS, rats, FIG. 4A): augmented
- carotid body sensory activity ([4]; exogenous NaHS 100 μM, CSE+/+ and CSE−/− mice, FIG. 11): augmented

SMILES: O=[C]=[Ru]([Cl])([Cl])(=[C]=O)=[C]=O [[Ru(CO)3Cl2]2, tricarbonyldichlororuthenium]
- H2S generation in carotid bodies under hypoxia ([1]; rat carotid bodies, hypoxia PO2=38 mmHg, 1 and 10 μM, FIG. 13B): inhibited H2S generation by hypoxia nearly to the levels seen under normoxia

SMILES: COc1ccc(Cl)cc1C(=O)NCCc1ccc(S(=O)(=O)NC(=O)NC2CCCCC2)cc1 [glibenclamide]
- prevention of carotid body response to NaHS ([2]; 100 μM glibenclamide, 100 μM NaHS, rats, FIG. 12): failed to prevent
- prevention of carotid body response to hypoxia ([2]; 100 μM glibenclamide, hypoxia PO2=42 mmHg, rats, FIG. 12): failed to prevent
